Data reported in patent EP1433789A1, “Pyrrolopyrazines and their use as selective apoptosis inducers” (Aponetics AG, priority 2002, dated 2004).

Assays:
HeLa [1] = experiment: Hoechst 33342 nuclear staining (Table 3); assay type: cell-based, human; set-up: key: 0 relating to no activity; 1 relating to weak activity comprising less than 50% of the cells; score 2 relating to strong activity comprising more than 50% of the cells
Summary of the method: (§1)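 Adherent cells (3-5×10^3, pre-spread 24 h) or suspension cells (8-10×10^3) treated with compounds at 10, 3, 1 and 0.3 µM for 24 or 48 h, then Hoechst 33342 stained for 30 min. Apoptotic nuclear morphology scored by fluorescence microscopy: 0 none, 1 weak (<50% cells), 2 strong (>50% cells).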

Jurkat [2] = experiment: Hoechst 33342 nuclear staining (Table 3); assay type: cell-based, human; set-up: key: 0 relating to no activity; 1 relating to weak activity comprising less than 50% of the cells; score 2 relating to strong activity comprising more than 50% of the cells
Summary of the method: as §1

K562 [3] = experiment: Hoechst 33342 nuclear staining (Table 3); assay type: cell-based, human; set-up: key: 0 relating to no activity; 1 relating to weak activity comprising less than 50% of the cells; score 2 relating to strong activity comprising more than 50% of the cells
Summary of the method: as §1

KB = experiment: Hoechst 33342 nuclear staining (Table 3); assay type: cell-based, human; set-up: key: 0 relating to no activity; 1 relating to weak activity comprising less than 50% of the cells; score 2 relating to strong activity comprising more than 50% of the cells
Summary of the method: as §1

HeLa [4] = experiment: MTS proliferation assay; assay type: cell-based; conditions: Homo sapiens, 72 h incubation
Summary of the method: (§2)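 Cells (1.5*10^3–10^4/well) seeded 24 h before treatment, then exposed 72 h to compound at 10, 3, 1 or 0.3 µM final (≤5% DMSO in added medium). Viability by MTS reagent, 3 h further incubation, absorbance at 492 nm.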

Jurkat [5] = experiment: MTS proliferation assay; assay type: cell-based; conditions: Homo sapiens, 72 h incubation
Summary of the method: as §2

K562 [6] = experiment: MTS proliferation assay; assay type: cell-based; conditions: Homo sapiens, K562, 72 h incubation
Summary of the method: as §2

HeLa [7] = experiment: AnnexinV/7-AAD staining; assay type: cell-based, human; conditions: 10 µM, 24 h treatment
Summary of the method: (§3)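 Cells treated with compound at 10 µM final for 24 h, then stained with AnnexinV-GST/anti-GST Alexa 488 and 7-AAD and analysed by flow cytometry. Percent positive cells scored as 0 (<10%), 1 (10–50%) or 2 (>50%).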

Jurkat [8] = experiment: AnnexinV/7-AAD staining; assay type: cell-based, human; conditions: 10 µM, 24 h treatment
Summary of the method: as §3

HeLa [9] = experiment: PI staining for cell cycle distribution; assay type: cell-based, human; set-up: key: 0 indicates no occurrence at all; 1 for weak; 2 for strong occurrence; conditions: HeLa 10 µM, 24 h
Experimental: (§4) 1 - 2*10^5 cells are seeded into 24 well tissue culture plates and incubated for 24 h prior to compound addition. Compounds are added for 24 h in a final concentration of 3 µM or 10 µM. Adherent cells are harvested by trypsinization. The cell suspensions are fixed by adding 2 parts ice cold ethanol 100% while vortexing. Then the samples are stored for > 2 h at-20°C. Subsequently the cells are washed with PBS once and resuspended in 250 µl PBS containing 50 µg/ml PI (Calbiochem # 537059), then the samples are incubated at 37°C for 30 minutes and subsequently analyzed on a FACSCalibur™ monitoring linear PI fluorescence activity on FL2.. The readout allows the detection of a possible direct or indirect influence of the tested compounds on the cell cycle. The following events can occur: a) Generation of a subG1 peak indicative for DNA fragmentation, b) increase of the cell population arrested in G2M phase. Both events are scored by 1 for weak and 2 for strong occurrence. 0 indicates no occurrence at all. […]

Jurkat [10] = experiment: PI staining for cell cycle distribution; assay type: cell-based, human; set-up: key: 0 indicates no occurrence at all; 1 for weak; 2 for strong occurrence; conditions: Jurkat 3 uM, 24 h
Experimental: as §4

## COc1cc2c(cc1OC)-c1c(Br)c3nc4ccccc4nc3n1C(C)C2 (stereo not shown) [compound 10]
HeLa [1]; 24h, conc 0.3 (µM)
  Hoechst 33342 nuclear staining: 0
HeLa [1]; 24h, conc 1 (µM)
  Hoechst 33342 nuclear staining: 0
HeLa [1]; 24h, conc 3 (µM)
  Hoechst 33342 nuclear staining: 0
HeLa [1]; 24h, conc 10 (µM)
  Hoechst 33342 nuclear staining: 2 (score 2 relating to strong activity comprising more than 50% of the cells)
HeLa [1]; 48h, conc 0.3 (µM)
  Hoechst 33342 nuclear staining: 0
HeLa [1]; 48h, conc 1 (µM)
  Hoechst 33342 nuclear staining: 0
HeLa [1]; 48h, conc 3 (µM)
  Hoechst 33342 nuclear staining: 2 (score 2 relating to strong activity comprising more than 50% of the cells)
HeLa [1]; 48h, conc 10 (µM)
  Hoechst 33342 nuclear staining: 2 (score 2 relating to strong activity comprising more than 50% of the cells)
Jurkat [2]; 24h, conc 0.3 (µM)
  Hoechst 33342 nuclear staining: 1 (1 relating to weak activity comprising less than 50% of the cells)
Jurkat [2]; 24h, conc 1 (µM)
  Hoechst 33342 nuclear staining: 2 (score 2 relating to strong activity comprising more than 50% of the cells)
Jurkat [2]; 24h, conc 3 (µM)
  Hoechst 33342 nuclear staining: 2 (score 2 relating to strong activity comprising more than 50% of the cells)
Jurkat [2]; 24h, conc 10 (µM)
  Hoechst 33342 nuclear staining: 2 (score 2 relating to strong activity comprising more than 50% of the cells)
Jurkat [2]; 48h, conc 0.3 (µM)
  Hoechst 33342 nuclear staining: 1 (1 relating to weak activity comprising less than 50% of the cells)
Jurkat [2]; 48h, conc 1 (µM)
  Hoechst 33342 nuclear staining: 2 (score 2 relating to strong activity comprising more than 50% of the cells)
Jurkat [2]; 48h, conc 3 (µM)
  Hoechst 33342 nuclear staining: 2 (score 2 relating to strong activity comprising more than 50% of the cells)
Jurkat [2]; 48h, conc 10 (µM)
  Hoechst 33342 nuclear staining: 2 (score 2 relating to strong activity comprising more than 50% of the cells)
K562 [3]; K562, 24h, conc 0.3 (µM)
  Hoechst 33342 nuclear staining: 0
K562 [3]; K562, 24h, conc 1 (µM)
  Hoechst 33342 nuclear staining: 0
K562 [3]; K562, 24h, conc 3 (µM)
  Hoechst 33342 nuclear staining: 2 (score 2 relating to strong activity comprising more than 50% of the cells)
K562 [3]; K562, 24h, conc 10 (µM)
  Hoechst 33342 nuclear staining: 2 (score 2 relating to strong activity comprising more than 50% of the cells)
K562 [3]; K562, 48h, conc 0.3 (µM)
  Hoechst 33342 nuclear staining: 0
K562 [3]; K562, 48h, conc 1 (µM)
  Hoechst 33342 nuclear staining: 2 (score 2 relating to strong activity comprising more than 50% of the cells)
K562 [3]; K562, 48h, conc 3 (µM)
  Hoechst 33342 nuclear staining: 2 (score 2 relating to strong activity comprising more than 50% of the cells)
K562 [3]; K562, 48h, conc 10 (µM)
  Hoechst 33342 nuclear staining: 2 (score 2 relating to strong activity comprising more than 50% of the cells)
KB; 24h, conc 0.3 (µM)
  Hoechst 33342 nuclear staining: 0
KB; 24h, conc 1 (µM)
  Hoechst 33342 nuclear staining: 0
KB; 24h, conc 3 (µM)
  Hoechst 33342 nuclear staining: 2 (score 2 relating to strong activity comprising more than 50% of the cells)
KB; 24h, conc 10 (µM)
  Hoechst 33342 nuclear staining: 2 (score 2 relating to strong activity comprising more than 50% of the cells)
KB; 48h, conc 0.3 (µM)
  Hoechst 33342 nuclear staining: 0
KB; 48h, conc 1 (µM)
  Hoechst 33342 nuclear staining: 2 (score 2 relating to strong activity comprising more than 50% of the cells)
KB; 48h, conc 3 (µM)
  Hoechst 33342 nuclear staining: 2 (score 2 relating to strong activity comprising more than 50% of the cells)
KB; 48h, conc 10 (µM)
  Hoechst 33342 nuclear staining: 2 (score 2 relating to strong activity comprising more than 50% of the cells)
HeLa [4]
  IC50: 1 to 10 µM
Jurkat [5]
  IC50: > 10 µM
K562 [6]
  IC50: > 10 µM
HeLa [7]
  percentage of positively stained cells (AnnexinV/7-AAD staining): 2 (score 2 relates to more than 50% positivity)
Jurkat [8]
  percentage of positively stained cells (AnnexinV/7-AAD staining): 2 (score 2 relates to more than 50% positivity)
HeLa [9]
  G2M (increase of the cell population arrested in G2M phase): 0
  subG1 (generation of a subG1 peak indicative for DNA fragmentation): 0
Jurkat [10]
  G2M (increase of the cell population arrested in G2M phase): 0
  subG1 (generation of a subG1 peak indicative for DNA fragmentation): 0

## CC1Cc2ccccc2-c2c(Cl)c3nc4ccccc4nc3n21 (stereo not shown) [compound 11]
HeLa [1]; 24h, conc 0.3 (µM)
  Hoechst 33342 nuclear staining: 0
HeLa [1]; 24h, conc 1 (µM)
  Hoechst 33342 nuclear staining: 0
HeLa [1]; 24h, conc 3 (µM)
  Hoechst 33342 nuclear staining: 0
HeLa [1]; 24h, conc 10 (µM)
  Hoechst 33342 nuclear staining: 0
HeLa [1]; 48h, conc 0.3 (µM)
  Hoechst 33342 nuclear staining: 0
HeLa [1]; 48h, conc 1 (µM)
  Hoechst 33342 nuclear staining: 0
HeLa [1]; 48h, conc 3 (µM)
  Hoechst 33342 nuclear staining: 0
HeLa [1]; 48h, conc 10 (µM)
  Hoechst 33342 nuclear staining: 2 (score 2 relating to strong activity comprising more than 50% of the cells)
Jurkat [2]; 24h, conc 0.3 (µM)
  Hoechst 33342 nuclear staining: 0
Jurkat [2]; 24h, conc 1 (µM)
  Hoechst 33342 nuclear staining: 0
Jurkat [2]; 24h, conc 3 (µM)
  Hoechst 33342 nuclear staining: 2 (score 2 relating to strong activity comprising more than 50% of the cells)
Jurkat [2]; 24h, conc 10 (µM)
  Hoechst 33342 nuclear staining: 2 (score 2 relating to strong activity comprising more than 50% of the cells)
Jurkat [2]; 48h, conc 0.3 (µM)
  Hoechst 33342 nuclear staining: 1 (1 relating to weak activity comprising less than 50% of the cells)
Jurkat [2]; 48h, conc 1 (µM)
  Hoechst 33342 nuclear staining: 2 (score 2 relating to strong activity comprising more than 50% of the cells)
Jurkat [2]; 48h, conc 3 (µM)
  Hoechst 33342 nuclear staining: 2 (score 2 relating to strong activity comprising more than 50% of the cells)
Jurkat [2]; 48h, conc 10 (µM)
  Hoechst 33342 nuclear staining: 2 (score 2 relating to strong activity comprising more than 50% of the cells)
K562 [3]; K562, 24h, conc 0.3 (µM)
  Hoechst 33342 nuclear staining: 0
K562 [3]; K562, 24h, conc 1 (µM)
  Hoechst 33342 nuclear staining: 0
K562 [3]; K562, 24h, conc 3 (µM)
  Hoechst 33342 nuclear staining: 0
K562 [3]; K562, 24h, conc 10 (µM)
  Hoechst 33342 nuclear staining: 2 (score 2 relating to strong activity comprising more than 50% of the cells)
K562 [3]; K562, 48h, conc 0.3 (µM)
  Hoechst 33342 nuclear staining: 0
K562 [3]; K562, 48h, conc 1 (µM)
  Hoechst 33342 nuclear staining: 0
K562 [3]; K562, 48h, conc 3 (µM)
  Hoechst 33342 nuclear staining: 1 (1 relating to weak activity comprising less than 50% of the cells)
K562 [3]; K562, 48h, conc 10 (µM)
  Hoechst 33342 nuclear staining: 2 (score 2 relating to strong activity comprising more than 50% of the cells)
KB; 24h, conc 0.3 (µM)
  Hoechst 33342 nuclear staining: 0
KB; 24h, conc 1 (µM)
  Hoechst 33342 nuclear staining: 0
KB; 24h, conc 3 (µM)
  Hoechst 33342 nuclear staining: 0
KB; 24h, conc 10 (µM)
  Hoechst 33342 nuclear staining: 0
KB; 48h, conc 0.3 (µM)
  Hoechst 33342 nuclear staining: 0
KB; 48h, conc 1 (µM)
  Hoechst 33342 nuclear staining: 0
KB; 48h, conc 3 (µM)
  Hoechst 33342 nuclear staining: 1 (1 relating to weak activity comprising less than 50% of the cells)
KB; 48h, conc 10 (µM)
  Hoechst 33342 nuclear staining: 2 (score 2 relating to strong activity comprising more than 50% of the cells)
HeLa [4]
  IC50: > 10 µM
Jurkat [5]
  IC50: > 10 µM
K562 [6]
  IC50: > 10 µM
HeLa [7]
  percentage of positively stained cells (AnnexinV/7-AAD staining): 1 (score 1 relates to more than 10% but less than 50%)
Jurkat [8]
  percentage of positively stained cells (AnnexinV/7-AAD staining): 0 (Score 0 relates to less than 10%)
HeLa [9]
  G2M (increase of the cell population arrested in G2M phase): 0
  subG1 (generation of a subG1 peak indicative for DNA fragmentation): 0
Jurkat [10]
  G2M (increase of the cell population arrested in G2M phase): 0
  subG1 (generation of a subG1 peak indicative for DNA fragmentation): 0
